Test results taken from patent US12109204B2, “Methods for treating muscular dystrophies” (The Regents of the University of California, priority 2018, dated 2024).

Legend:
Assay type in all cases: cell-based, murine
[1] = test system: hSSPN-EGFP myotubes (human sarcospan promoter reporter in C2C12); experiment: hSSPN-EGFP reporter myotube assay (high-content imaging)
Procedure: C2C12 immortalized murine myoblasts cultured in growth media consisting of DMEM (Gibco) with 20% Fetal Bovine Serum (Sigma-Aldrich) at 37° C. with 5% CO2 were transfected with the hSSPN-EGFP or hSSPN-Luciferase linearized plasmids using Lipofectamine 3000 Transfection Reagent (Thermo Fisher Scientific). Transfected cells were selected using 800 μg/ml of G418 (Sigma-Aldrich) for 4 weeks to generate stable cell lines expressing reporter protein under control of the human SSPN promoter.
hSSPN-EGFP myoblasts were seeded at 500 cells per well in 50 μl of growth media in 384-well black, clear bottom microplates (Greiner) using a Multidrop 384 (Thermo Fisher Scientific) and incubated for 3 days. Upon reaching confluency, the growth media was replaced with 50 μl of differentiation media consisting of DMEM with 2% horse serum (Sigma-Aldrich) using an EL406 combination washer dispenser (Biotek). At day 2 of differentiation, the media on the cells was aspirated, left with a residual volume of 10 μl, and replaced with 30 μl of fresh differentiation media. 0.5 μl of small molecule in DMSO or DMSO alone (for vehicle and positive control wells) was added to each well using a Biomek Fx (Beckman). To ensure proper mixing of the DMSO, 50 μl of additional differentiation media was added to all wells except the positive control treated wells, which instead received 50 μl of media containing insulin transferrin selenium (ITS, Gibco) to reach a final concentration of 1% ITS. The final concentration of drug in each treated well was 5.5 μM in 0.55% DMSO and 0.55% DMSO for vehicle and positive control treated wells. After 48 hours of incubation, the media was replaced with Fluorobrite DMEM (Gibco) and each plate was imaged using ImageXpress Micro Confocal High Content Imaging System (Molecular Devices). The fluorescent intensity of imaged cells was determined using MetaXpress Analysis software (Molecular Devices). Analysis setting were as follows: top hat (size: 12, filter shape: circle), adaptive threshold (source: top hat, minimum width: 10, maximum width: 800, intensity above local background: 500), filter mask (filter type: minimum area filter, minimum value: 500). […]

[2] = test system: UTRN, utrophin; experiment: UTRN gene expression by qPCR in C2C12 wild-type myotubes; settings: C2C12 wild-type myotubes, 48 hours, normalized to β-actin (FIG. 12a)
Procedure: (§1) RNA from myotubes treated for 48 hours was extracted from cells using Trizol-based (Thermo Fisher Scientific) phase separation. RNA concentrations were determined using a NanoDrop 1000 (Thermo Fisher Scientific) and 750 ng of RNA in a 20 μl reaction was reverse transcribed using iScript cDNA synthesis (Bio-Rad) with the following cycling conditions: 25° C. for 5 minutes, 42° C. for 30 minutes, 85° C. for 5 minutes. For quantitative PCR, SsoFast EvaGreen Supermix (Bio-Rad), 400 nM of each optimized forward and reverse primer (for primer descriptions see Table 1), and cDNA corresponding to 37.5 ng RNA were used to amplify cDNA measured by Applied Biosystems 7300 (Thermo Fisher Scientific) with the following reaction conditions: 55° C. for 2 minutes, 95° C. for 2 minutes, 40 cycles of 95° C. for 10 seconds and 62° C. for 30 seconds, and dissociation stage. Each sample was run in triplicate. Data was analyzed using the ddCT method and normalized to reference gene, GAPDH or β-actin, with vehicle-treated samples serving as the calibrator (relative expression of vehicle control=1). C2C12 cells (American Type Culture Collection) were grown at 37° C. with 5% CO2 in growth media containing DMEM (Gibco) with 20% FBS (Sigma-Aldrich). Upon reaching confluency, the media was replaced with differentiation media containing DMEM with 2% horse serum (Sigma-Aldrich). […]

[3] = test system: MYOG, myogenin; experiment: MYOG gene expression by qPCR in C2C12 wild-type myotubes; settings: 48 hours, normalized to β-actin (FIG. 12a)
Procedure: as §1

[4] = test system: mdx myotubes; experiment: Fusion index in mdx myotubes; settings: mdx myotubes (FIG. 12c-d)
[5] = test system: hSSPN-EGFP myotubes (human sarcospan promoter reporter in C2C12); experiment: hSSPN-EGFP reporter myotube assay (high-content imaging); settings: doses between 3.9 nm to 1 μM, 48 hours (FIG. 10a)

**Q.** For `CCOC(=O)C1=C(C)NC(C)=C(C(=O)OC)C1c1cccc(Cl)c1Cl` (stereo not shown) [Felodipine, 5-O-ethyl 3-O-methyl 4-(2,3-dichlorophenyl)-2,6-dimethyl-1,4-dihydropyridine-3,5-dicarboxylate], which “fluorescence intensity over vehicle, primary screen hit call” value ([1]; primary screen of 3,200 molecules, 5.5 μM, 48 hours, n=1, hit cutoff 1.4-fold) is on record?
**A.** The value was “hits”.

**Q.** What about the “hSSPN-EGFP RFU, Plate 1” value ([1]; retest of screen hits at 5.5 μM, Plate 1, n=24 per plate) of the same molecule?
**A.** Its value is 1.4 RFU.

**Q.** What about the “hSSPN-EGFP RFU, Plate 2” value ([1]; retest of screen hits at 5.5 μM, Plate 2, n=24 per plate) of the same molecule?
**A.** Its value is 1.4 RFU.

**Q.** What about the utrophin gene expression [2] of the same molecule?
**A.** The utrophin gene expression was “increases”.

**Q.** What about the myogenin gene expression [3] of the same molecule?
**A.** Its myogenin gene expression is “increases”.

**Q.** And the “fusion index (nuclei in myosin heavy chain positive area/total nuclei in field)” value [4]?
**A.** Its value is “does not increase fusion index”.

**Q.** What about the “hSSPN-EGFP reporter activity, counterscreen” value [5] of the same molecule?
**A.** The value was “increased activity”.
